Test in all cases: whole-cell patch clamp, V0.[…] shift, Hill fit
Assay type in all cases: cell-based

Assay [1] addresses T1, KCNQ3 (homomer; KCNQ3T = KCNQ3-A315T) (Homo sapiens, UniProt O43525, A315T).
T1 sequence (O43525 1-872 A315T): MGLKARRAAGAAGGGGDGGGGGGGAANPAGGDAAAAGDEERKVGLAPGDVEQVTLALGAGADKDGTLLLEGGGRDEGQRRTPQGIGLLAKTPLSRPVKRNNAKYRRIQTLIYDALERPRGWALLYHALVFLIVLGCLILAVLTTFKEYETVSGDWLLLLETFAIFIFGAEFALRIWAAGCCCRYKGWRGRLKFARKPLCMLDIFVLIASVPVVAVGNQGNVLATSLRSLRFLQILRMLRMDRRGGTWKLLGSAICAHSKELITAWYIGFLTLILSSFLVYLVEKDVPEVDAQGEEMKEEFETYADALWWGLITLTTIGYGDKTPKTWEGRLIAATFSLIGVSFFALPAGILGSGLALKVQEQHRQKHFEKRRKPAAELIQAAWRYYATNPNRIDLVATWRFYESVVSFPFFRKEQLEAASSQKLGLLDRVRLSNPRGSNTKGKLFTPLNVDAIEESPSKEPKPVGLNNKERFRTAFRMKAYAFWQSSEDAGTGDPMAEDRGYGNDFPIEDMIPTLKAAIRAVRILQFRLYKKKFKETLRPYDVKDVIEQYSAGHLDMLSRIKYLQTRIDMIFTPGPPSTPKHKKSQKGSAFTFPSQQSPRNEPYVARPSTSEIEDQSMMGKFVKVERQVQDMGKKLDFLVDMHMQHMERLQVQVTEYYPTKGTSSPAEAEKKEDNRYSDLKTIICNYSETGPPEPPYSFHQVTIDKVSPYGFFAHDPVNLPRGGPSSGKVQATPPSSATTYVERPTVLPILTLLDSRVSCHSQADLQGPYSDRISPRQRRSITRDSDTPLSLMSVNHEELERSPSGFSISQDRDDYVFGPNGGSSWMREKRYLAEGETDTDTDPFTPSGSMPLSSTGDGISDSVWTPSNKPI

Assay [2] addresses KCNQ2/3 channel (KCNQ2/3 heteromers) (Homo sapiens, UniProt O43525+O43526).
Assay [3] deals with T2, KCNQ3 (homomer; KCNQ3T = KCNQ3-A315T) (Homo sapiens, UniProt O43525, A315T/S209A).
T2 sequence (O43525 1-872 S209A/A315T): T1 sequence (O43525 1-872 A315T) with S209A

In assay [4] the target is T3, KCNQ3 (homomer; KCNQ3T = KCNQ3-A315T) (Homo sapiens, UniProt O43525, A315T/F167A).
T3 sequence (O43525 1-872 F167A/A315T): T1 sequence (O43525 1-872 A315T) with F167A

Usually EC50 stands for the midpoint of the concentration-response curve.

Positions count from the first letter of the chain named.

KCNQ2/3 channel (KCNQ2/3 heteromers), sequence (O43525 whole entry): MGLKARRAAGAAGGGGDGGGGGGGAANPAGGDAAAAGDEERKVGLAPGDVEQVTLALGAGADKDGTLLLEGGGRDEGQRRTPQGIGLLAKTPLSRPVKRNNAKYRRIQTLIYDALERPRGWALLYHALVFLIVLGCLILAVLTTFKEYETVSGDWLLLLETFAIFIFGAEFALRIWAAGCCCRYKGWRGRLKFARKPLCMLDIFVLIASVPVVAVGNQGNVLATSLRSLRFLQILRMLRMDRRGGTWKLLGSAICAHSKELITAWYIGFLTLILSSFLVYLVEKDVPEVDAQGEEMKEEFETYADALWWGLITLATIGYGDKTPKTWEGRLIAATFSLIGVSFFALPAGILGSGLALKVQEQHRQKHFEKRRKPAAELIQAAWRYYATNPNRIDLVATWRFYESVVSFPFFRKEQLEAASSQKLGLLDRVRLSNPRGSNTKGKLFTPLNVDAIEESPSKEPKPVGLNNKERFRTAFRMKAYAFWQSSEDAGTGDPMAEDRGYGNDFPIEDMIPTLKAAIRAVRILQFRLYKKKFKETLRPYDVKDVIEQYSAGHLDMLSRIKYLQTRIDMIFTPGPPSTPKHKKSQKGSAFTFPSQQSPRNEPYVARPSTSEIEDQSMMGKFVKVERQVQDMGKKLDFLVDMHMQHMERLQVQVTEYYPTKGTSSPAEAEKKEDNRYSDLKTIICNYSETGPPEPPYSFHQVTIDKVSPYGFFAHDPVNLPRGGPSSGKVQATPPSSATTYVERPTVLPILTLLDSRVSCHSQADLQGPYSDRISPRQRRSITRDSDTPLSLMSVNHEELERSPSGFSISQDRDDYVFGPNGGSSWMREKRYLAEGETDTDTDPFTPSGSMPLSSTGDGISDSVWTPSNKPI
KCNQ2/3 channel (KCNQ2/3 heteromers), sequence (O43526 whole entry): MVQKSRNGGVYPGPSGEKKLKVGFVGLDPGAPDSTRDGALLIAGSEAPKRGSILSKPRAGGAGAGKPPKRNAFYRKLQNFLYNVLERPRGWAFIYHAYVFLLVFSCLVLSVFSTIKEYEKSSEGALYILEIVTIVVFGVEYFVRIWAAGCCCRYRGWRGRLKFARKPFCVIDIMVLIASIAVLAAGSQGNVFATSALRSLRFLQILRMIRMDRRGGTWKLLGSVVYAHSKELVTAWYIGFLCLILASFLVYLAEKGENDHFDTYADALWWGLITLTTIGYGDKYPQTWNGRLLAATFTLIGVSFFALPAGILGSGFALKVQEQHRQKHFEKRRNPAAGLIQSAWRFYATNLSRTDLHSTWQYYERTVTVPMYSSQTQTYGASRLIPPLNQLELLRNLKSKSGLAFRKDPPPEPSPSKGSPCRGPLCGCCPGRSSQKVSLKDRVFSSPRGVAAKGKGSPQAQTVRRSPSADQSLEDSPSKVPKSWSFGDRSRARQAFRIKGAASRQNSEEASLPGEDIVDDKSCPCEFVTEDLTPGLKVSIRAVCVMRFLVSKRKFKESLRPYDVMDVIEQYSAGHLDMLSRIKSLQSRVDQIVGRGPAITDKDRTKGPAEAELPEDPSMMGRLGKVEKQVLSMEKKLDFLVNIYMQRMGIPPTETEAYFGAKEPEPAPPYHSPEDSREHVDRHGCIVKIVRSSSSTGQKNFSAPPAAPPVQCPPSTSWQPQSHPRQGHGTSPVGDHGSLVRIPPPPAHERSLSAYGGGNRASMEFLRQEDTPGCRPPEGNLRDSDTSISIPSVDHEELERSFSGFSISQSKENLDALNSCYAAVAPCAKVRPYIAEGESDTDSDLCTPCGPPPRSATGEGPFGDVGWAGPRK

Consider `Oc1cc(Cl)ccc1Oc1ccc(Cl)cc1Cl` [triclosan], for which the 50% effective concentration (EC50) in assay [1] came to 38 µM; in assay [2], 32 µM; in assay [3], 46 µM; in assay [4], 42 µM.

Turning to `CCOC(=O)Nc1ccc(NCc2ccc(F)cc2)cc1N` [retigabine], the EC50 in assay [2] turned out to be 3.6 µM.

For the origin of these results see article doi:10.1101/2021.09.30.462664v1 (biorxiv, 2021).
